Values of other authors as cited in patent US12552830B2, “Steroidal compound derivatives as therapeutic agents” (priority 2020, dated 2026).
“Also recorded” adds a separate entry of the source.

Key:
[1] = test system: transactivator of transcription (Tat)
HIV = details: latent CD4+T cells, in vitro
[2] = test system: human umbilical endothelial cell (HUVEC)

Molecule | inhibition of Tat [1] | viral reactivation of HIV (HIV) | IC50 ([2]; HUVECs, read-out: IC50, selective anti-proliferative activity of HUVECs) [nM] | selectivity for HUVECs over other cell lines ([2]; over NHDF, KB3-1, K562 and Neuro2A cells) [fold]
CN(C)[C@H]1C[C@@]23CC[C@@]4(O2)C(=CC[C@]2(C)C(c5ccc6ccncc6c5)=CCC24)C=C3[C@@H](O)[C@@H]1O (stereo partly shown) [dCA, didehydro-cortistatin A] | most potent inhibitor of transactivator of transcription (Tat) | prevents viral reactivation of HIV in vitro; also recorded: prevents viral reactivation in latent CD4+T cells in vitro |  | 
cortistatin A |  |  | 1.8 | 3000
